Reference: PubChem BioAssay (NCI)
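Tested at 5 concentrations; 48 h exposure; 96-well plates; endpoints linearly interpolated, else capped at highest concentration. TGI: concentration producing complete growth inhibition.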

System: K-562 leukemia
Test: NCI tumour cell line growth inhibition, 48 h

SMILES	TGI
COc1ccc(-c2onc(-c3ccc([N+](=O)[O-])cc3)c2C2=NCCN2)cc1	> 100 µM
Cc1cc(Cl)ccc1NC(=O)CCCC(=O)C1CCCC1=O (configuration not stated)	> 100 µM
COc1ccc(NC(=O)C(=O)C(C(=O)c2ccccc2)C2OC(=O)c3ccccc32)c([N+](=O)[O-])c1 (configuration not stated)	> 100 µM
O=C(Nc1ccc(Cl)cc1)C(=O)C(C(=O)c1ccccc1-c1ccccc1)C1OC(=O)c2ccccc21 (configuration not stated)	> 100 µM

System: OVCAR-8 ovarian
Test: NCI tumour cell line growth inhibition, 48 h

SMILES	TGI
COc1c2nc(CCl)[nH]c(=O)c2c(OC)c2nc(CCl)[nH]c(=O)c12	> 100 µM
COc1ccccc1N1C(=O)/C(=C/c2ccc(N(CCC#N)CCC#N)cc2C)N=C1c1cc([N+](=O)[O-])ccc1Cl	> 100 µM
CCCCCCCCC[C@@H]1CC(=O)OCC2OC(O[C@H](CCCCCCCCC)CC(=O)OCC3OC(O[C@H](CCCCCCCCC)CC(=O)OCC4OC(O1)C(O)C(O)C4O)C(O)C(O)C3O)C(O)C(O)C2O (some centres not stated)	28.7 µM
COc1ccc(-c2onc(-c3ccc([N+](=O)[O-])cc3)c2C2=NCCN2)cc1	> 100 µM
Cc1cc(Cl)ccc1NC(=O)CCCC(=O)C1CCCC1=O (configuration not stated)	> 100 µM
COc1ccc(NC(=O)C(=O)C(C(=O)c2ccccc2)C2OC(=O)c3ccccc32)c([N+](=O)[O-])c1 (configuration not stated)	> 100 µM
O=C(Nc1ccc(Cl)cc1)C(=O)C(C(=O)c1ccccc1-c1ccccc1)C1OC(=O)c2ccccc21 (configuration not stated)	29.3 µM

System: XF 498 CNS
Test: NCI tumour cell line growth inhibition, 48 h

SMILES	TGI
COc1c2nc(CCl)[nH]c(=O)c2c(OC)c2nc(CCl)[nH]c(=O)c12	> 100 µM
COc1ccccc1N1C(=O)/C(=C/c2ccc(N(CCC#N)CCC#N)cc2C)N=C1c1cc([N+](=O)[O-])ccc1Cl	> 100 µM
CCCCCCCCC[C@@H]1CC(=O)OCC2OC(O[C@H](CCCCCCCCC)CC(=O)OCC3OC(O[C@H](CCCCCCCCC)CC(=O)OCC4OC(O1)C(O)C(O)C4O)C(O)C(O)C3O)C(O)C(O)C2O (some centres not stated)	23.3 µM
COc1ccc(-c2onc(-c3ccc([N+](=O)[O-])cc3)c2C2=NCCN2)cc1	> 100 µM
Cc1cc(Cl)ccc1NC(=O)CCCC(=O)C1CCCC1=O (configuration not stated)	> 100 µM
COc1ccc(NC(=O)C(=O)C(C(=O)c2ccccc2)C2OC(=O)c3ccccc32)c([N+](=O)[O-])c1 (configuration not stated)	> 100 µM
O=C(Nc1ccc(Cl)cc1)C(=O)C(C(=O)c1ccccc1-c1ccccc1)C1OC(=O)c2ccccc21 (configuration not stated)	36.6 µM

System: HCT-116 colon
Test: NCI tumour cell line growth inhibition, 48 h

SMILES	TGI
COc1c2nc(CCl)[nH]c(=O)c2c(OC)c2nc(CCl)[nH]c(=O)c12	> 100 µM
COc1ccccc1N1C(=O)/C(=C/c2ccc(N(CCC#N)CCC#N)cc2C)N=C1c1cc([N+](=O)[O-])ccc1Cl	> 100 µM
CCCCCCCCC[C@@H]1CC(=O)OCC2OC(O[C@H](CCCCCCCCC)CC(=O)OCC3OC(O[C@H](CCCCCCCCC)CC(=O)OCC4OC(O1)C(O)C(O)C4O)C(O)C(O)C3O)C(O)C(O)C2O (some centres not stated)	21.9 µM
COc1ccc(-c2onc(-c3ccc([N+](=O)[O-])cc3)c2C2=NCCN2)cc1	> 100 µM
Cc1cc(Cl)ccc1NC(=O)CCCC(=O)C1CCCC1=O (configuration not stated)	> 100 µM
COc1ccc(NC(=O)C(=O)C(C(=O)c2ccccc2)C2OC(=O)c3ccccc32)c([N+](=O)[O-])c1 (configuration not stated)	> 100 µM
O=C(Nc1ccc(Cl)cc1)C(=O)C(C(=O)c1ccccc1-c1ccccc1)C1OC(=O)c2ccccc21 (configuration not stated)	32.1 µM

System: A549 NSCLC
Test: NCI tumour cell line growth inhibition, 48 h

SMILES	TGI
COc1c2nc(CCl)[nH]c(=O)c2c(OC)c2nc(CCl)[nH]c(=O)c12	> 100 µM
COc1ccccc1N1C(=O)/C(=C/c2ccc(N(CCC#N)CCC#N)cc2C)N=C1c1cc([N+](=O)[O-])ccc1Cl	> 100 µM
CCCCCCCCC[C@@H]1CC(=O)OCC2OC(O[C@H](CCCCCCCCC)CC(=O)OCC3OC(O[C@H](CCCCCCCCC)CC(=O)OCC4OC(O1)C(O)C(O)C4O)C(O)C(O)C3O)C(O)C(O)C2O (some centres not stated)	29.4 µM
COc1ccc(-c2onc(-c3ccc([N+](=O)[O-])cc3)c2C2=NCCN2)cc1	> 100 µM
Cc1cc(Cl)ccc1NC(=O)CCCC(=O)C1CCCC1=O (configuration not stated)	> 100 µM
COc1ccc(NC(=O)C(=O)C(C(=O)c2ccccc2)C2OC(=O)c3ccccc32)c([N+](=O)[O-])c1 (configuration not stated)	> 100 µM
O=C(Nc1ccc(Cl)cc1)C(=O)C(C(=O)c1ccccc1-c1ccccc1)C1OC(=O)c2ccccc21 (configuration not stated)	50.7 µM

System: NCI-H460 lung
Test: NCI tumour cell line growth inhibition, 48 h

SMILES	TGI
COc1c2nc(CCl)[nH]c(=O)c2c(OC)c2nc(CCl)[nH]c(=O)c12	> 100 µM
COc1ccccc1N1C(=O)/C(=C/c2ccc(N(CCC#N)CCC#N)cc2C)N=C1c1cc([N+](=O)[O-])ccc1Cl	> 100 µM
CCCCCCCCC[C@@H]1CC(=O)OCC2OC(O[C@H](CCCCCCCCC)CC(=O)OCC3OC(O[C@H](CCCCCCCCC)CC(=O)OCC4OC(O1)C(O)C(O)C4O)C(O)C(O)C3O)C(O)C(O)C2O (some centres not stated)	17.3 µM
COc1ccc(-c2onc(-c3ccc([N+](=O)[O-])cc3)c2C2=NCCN2)cc1	> 100 µM
Cc1cc(Cl)ccc1NC(=O)CCCC(=O)C1CCCC1=O (configuration not stated)	> 100 µM
COc1ccc(NC(=O)C(=O)C(C(=O)c2ccccc2)C2OC(=O)c3ccccc32)c([N+](=O)[O-])c1 (configuration not stated)	> 100 µM
O=C(Nc1ccc(Cl)cc1)C(=O)C(C(=O)c1ccccc1-c1ccccc1)C1OC(=O)c2ccccc21 (configuration not stated)	40.1 µM

System: RXF 393 renal
Test: NCI tumour cell line growth inhibition, 48 h

SMILES	TGI
COc1c2nc(CCl)[nH]c(=O)c2c(OC)c2nc(CCl)[nH]c(=O)c12	> 100 µM
CCCCCCCCC[C@@H]1CC(=O)OCC2OC(O[C@H](CCCCCCCCC)CC(=O)OCC3OC(O[C@H](CCCCCCCCC)CC(=O)OCC4OC(O1)C(O)C(O)C4O)C(O)C(O)C3O)C(O)C(O)C2O (some centres not stated)	30.9 µM
COc1ccc(-c2onc(-c3ccc([N+](=O)[O-])cc3)c2C2=NCCN2)cc1	> 100 µM
COc1ccc(NC(=O)C(=O)C(C(=O)c2ccccc2)C2OC(=O)c3ccccc32)c([N+](=O)[O-])c1 (configuration not stated)	> 100 µM
O=C(Nc1ccc(Cl)cc1)C(=O)C(C(=O)c1ccccc1-c1ccccc1)C1OC(=O)c2ccccc21 (configuration not stated)	24.4 µM

System: HCT-15 colon
Test: NCI tumour cell line growth inhibition, 48 h

SMILES	TGI
COc1c2nc(CCl)[nH]c(=O)c2c(OC)c2nc(CCl)[nH]c(=O)c12	> 100 µM
COc1ccccc1N1C(=O)/C(=C/c2ccc(N(CCC#N)CCC#N)cc2C)N=C1c1cc([N+](=O)[O-])ccc1Cl	> 100 µM
CCCCCCCCC[C@@H]1CC(=O)OCC2OC(O[C@H](CCCCCCCCC)CC(=O)OCC3OC(O[C@H](CCCCCCCCC)CC(=O)OCC4OC(O1)C(O)C(O)C4O)C(O)C(O)C3O)C(O)C(O)C2O (some centres not stated)	21 µM
